Data on 37 compounds can be found in ChEMBL document CHEMBL1150076, “Effects of various isoquinoline alkaloids on in vitro 3H-dopamine uptake by rat striatal synaptosomes” (J Nat Prod, 1995).

SMILES strings stand for the structures. Where only a bound is given, the exact number is not on record here.

Sodium-dependent dopamine transporter, sequence (P23977 whole entry): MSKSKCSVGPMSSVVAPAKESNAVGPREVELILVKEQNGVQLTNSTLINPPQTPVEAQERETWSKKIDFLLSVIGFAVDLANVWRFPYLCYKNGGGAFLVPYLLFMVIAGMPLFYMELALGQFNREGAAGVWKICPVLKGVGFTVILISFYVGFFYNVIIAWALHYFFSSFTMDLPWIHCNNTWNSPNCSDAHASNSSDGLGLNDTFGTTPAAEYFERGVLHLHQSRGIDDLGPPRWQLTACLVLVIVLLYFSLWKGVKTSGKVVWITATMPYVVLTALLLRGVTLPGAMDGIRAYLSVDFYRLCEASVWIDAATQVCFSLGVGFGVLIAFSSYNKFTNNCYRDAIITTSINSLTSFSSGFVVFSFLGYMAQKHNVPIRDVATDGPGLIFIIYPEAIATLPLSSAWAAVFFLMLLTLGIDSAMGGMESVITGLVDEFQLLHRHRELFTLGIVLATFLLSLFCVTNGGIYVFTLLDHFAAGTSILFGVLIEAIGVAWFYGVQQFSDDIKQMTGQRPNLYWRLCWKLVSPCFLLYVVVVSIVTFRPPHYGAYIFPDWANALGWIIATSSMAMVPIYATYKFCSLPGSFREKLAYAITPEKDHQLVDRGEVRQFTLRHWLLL

The assay has as its target Sodium-dependent dopamine transporter (Rattus norvegicus, UniProt P23977). Type of assay: subcellular, Wistar, Brain, Synaptosomes.
As usually defined, the IC50 is the concentration that gives 50% inhibition. Lower therefore signals higher potency. `COc1cccc2c1-c1c3c(cc4c1[C@@H](C2)N(C)CC4)OCO3` returned an IC50 of 31.8 µM.

Regarding `COc1ccc2c(c1)c(C)c1c3c(cc4c(c32)OCO4)CCN1C`, the IC50 came to 46.6 µM.

Compound `COc1cc2c(cc1OC)[C@@H](Cc1ccc(Oc3cc(C[C@@H]4c5cc(OC)c(OC)cc5CCN4C)ccc3OC)cc1)N(C)CC2` returned a 50% inhibitory concentration (IC50) of 5.8 µM.

With `COc1c(O)c2c3c(c1OC)CCN(C)[C@@H]3Cc1ccccc1-2`, the midpoint of inhibition, the IC50, lay at 46.4 µM.

On to `O=C(O)CCCCCCNC1c2ccccc2CCc2ccccc21` [AMINEPTINE], for which half-maximal inhibition (IC50) was put at 1 µM.

Consider `Oc1ccc2c(c1)C[C@H]1NCCc3cc4c(c-2c31)OCO4` [ANOLOBINE], for which 8.1 µM corresponded to half-maximal inhibition (IC50).

In the case of `c1ccc2c(c1)C[C@H]1NCCc3cc4c(c-2c31)OCO4` [ANONAINE], the IC50 turned out to be 0.8 µM.

Compound `COc1cc2c3cc1Oc1c(O)c(OC)cc4c1[C@H](Cc1ccc(OC)c(c1)-c1cc(ccc1O)C[C@H]3N(C)CC2)N(C)CC4` [ANTIOQUINE] returned an IC50 of 3.4 µM.

For the compound `Cc1c2c3c(cc4c(c3c3ccc(O)cc13)OCO4)CCN2C` [BELEMINE], the IC50 was determined as 61.4 µM.

`COc1cc2c(cc1O)C[C@H]1c3c(ccc(O)c3O2)CCN1C` [BREOGANINE] had an IC50 of 56.5 µM.

The compound `COc1cc2c(cc1O)Oc1c(O)ccc3c1[C@H](C2)N(C)CC3` [CELTISINE] registered an IC50 above 100 µM.

Compound `COc1ccc2c(c1O)Oc1c(O)ccc3c1[C@H](C2)N(C)CC3` [CLAVICULINE] showed a 50% inhibitory concentration (IC50) above 100 µM.

In turn, `COc1cc2c(cc1OC)Oc1c(O)ccc3c1[C@H](C2)N(C)CC3` [CULARIDINE] displayed an IC50 of 41.2 µM.

`COc1cc2c(cc1OC)[C@@H](Cc1ccc(Oc3cc(C[C@H]4c5cc(OC)c(OC)cc5CCN4C)ccc3OC)cc1)N(C)CC2` [DIMETHYLGRISABINE] returned an IC50 of 1.1 µM.

`COc1cc2c3cc1Oc1c(OC)c(OC)cc4c1[C@@H](C(=O)c1ccc(OC)c(c1)-c1cc(ccc1OC)C[C@H]3N(C)CC2)N(C)CC4` [DIMETHYLPSEUDOXANDRINE] showed an IC50 of 20.1 µM.

Consider `COc1cc2c3c(c(-c4c5c6c(cc7c(c6c6ccccc46)OCO7)CCN5)c4ccccc4c3c1OC)NCC2` [HETEROPSINE], for which the IC50 was above 100 µM.

`COc1ccc2cc1Oc1ccc(cc1)C[C@H]1c3c(cc(OC)c(O)c3Oc3cc4c(cc3OC)CCN(C)[C@@H]4C2)CCN1C` [HOMOAROMOLINE] registered an IC50 of 10.9 µM.

For `COc1cc(C[C@H]2c3c(ccc(OC)c3O)CCN2C)ccc1O` [ISOCRASSIFOLINE], the midpoint of inhibition, the IC50, lay at 36.2 µM.

In turn, `COc1c(O)c2c3c(c1OC)CCN[C@@H]3Cc1ccccc1-2` [ISOPILINE] returned a half-maximal inhibitory concentration (IC50) of 2.5 µM.

As for `COc1ccc2cc1Oc1ccc(cc1)C[C@@H]1c3cc(c(OC)cc3CCN1C)Oc1c(OC)c(OC)cc3c1[C@H](C2)N(C)CC3` [ISOTETRANDRINE], the IC50 came out at 4.2 µM.

As to `COc1cc2c(cc1O)[C@H](Cc1ccc(O)cc1)NCC2` [L-COCLAURINE], the half-maximal inhibitory concentration (IC50) came out at 14.1 µM.

The compound `O=C1c2ccccc2-c2c3c(cc4ccnc1c24)OCO3` [LIRIODENINE] registered a half-inhibitory concentration (IC50) of 31.2 µM.

`COc1cc2ccnc3c2c(c1OC)-c1ccccc1C3=O` [LYSICAMINE]: the concentration for half-maximal inhibition (IC50) is above 100 µM.

In the case of `COc1c(O)c2c3c(nccc3c1OC)C(C)(C)c1cc(O)ccc1-2` [MELOSMINE], the concentration for half-maximal inhibition (IC50) stood at 23.6 µM.

Turning to `COc1cc2c(cc1OC)[C@H](Cc1ccc(O)cc1)NCC2` [NORARMEPAVINE], the IC50 amounted to 37 µM.

In the case of `COc1cc2c(cc1O)C[C@@H]1NCCc3cc(O)c(OC)c-2c31` [NORBOLDINE], the IC50 turned out to be 16.5 µM.

The compound `COc1c2c3c(c4c1OCO4)-c1ccccc1C[C@H]3NCC2` [NORSTEPHALAGINE] gave an IC50 of 1.4 µM.

Turning to `COc1ccc2cc1Oc1ccc(cc1)C[C@H]1c3c(cc(OC)c(OC)c3Oc3cc4c(cc3OC)CCN(C)[C@@H]4C2)CCN1C` [OBABERINE], the IC50 turned out to be 3.9 µM.

In the case of `COc1cc2c(cc1OC)C(=O)c1nccc3ccc(OC)c(c13)O2` [OXOCULARINE], the IC50 is above 100 µM.

The compound `COc1ccc2c(c1OC)Oc1c(O)ccc3ccnc(c13)C2` [OXOSARCOPHYLLINE] displayed an IC50 above 100 µM.

`COc1cc2c(cc1OC)[C@@H](Cc1ccc(OC)c(Oc3ccc(C[C@H]4NCCc5cc(OC)c(OC)cc54)cc3)c1)N(C)CC2` [PAMPULHAMINE]: it took 84.2 µM to reach half-maximal inhibition (IC50).

`COc1ccc2c(c1O)Oc1c(OC)ccc3c1[C@H](C2)N(C)CC3` [SARCOCAPNIDINE]: the half-maximal inhibitory concentration (IC50) came to 85.5 µM.

With `COc1cc2c3c(c1OC)-c1c(ccc(O)c1O)C[C@H]3N(C)CC2` [SAUVEOLINE], the concentration for half-maximal inhibition (IC50) was above 100 µM.

With `COc1cc2c(cc1Oc1c(O)c(OC)cc3c1[C@H](Cc1ccc(OC)c(-c4cc(C=O)ccc4O)c1)N(C)CC3)C(=O)N(C)CC2` [SECANTIOQUINE], the IC50 was above 100 µM.

Turning to `COc1cc2c(cc1OC)Oc1c(O)ccc(CCN(C)C)c1C=C2` [SECOCULARIDINE], the IC50 amounted to 13.4 µM.

On to `COc1cc2c(cc1OC)Oc1c(OC)ccc(CCN(C)C)c1C=C2` [SECOCULARINE], for which the IC50 turned out to be 28.2 µM.

In turn, `COc1ccc(C[C@H]2c3c(cc(OC)c4c3Oc3cc5c(cc3O4)CCN(C)C5=O)CCN2C)cc1-c1cc(C=O)ccc1O` [SECOLUCIDINE] came in with a concentration for half-maximal inhibition (IC50) above 100 µM.
